Results as given in patent US5824670A, “17-deoxycorticosteroid-21-[O]carboxylic esters, processes for their preparation and pharmaceuticals containing these compounds” (priority 1994, dated 1998).

Experiments:
[1] = system: carrageenin paw edema; assay: Systemic activity following subcutaneous administration in the carrageenin paw edema test in rats; assay type: in vivo, Male Sprague-Dawley rats; settings: for Increase at 3 h (paw volume) / Increase at 6 h (paw volume): x ± s, * = p<0.05 Dunnett
Protocol: 2a. Testing for systemic activity following subcutaneous administration in the carrageenin paw edema test in rats The method was described by Winter, C. A. et al. in Proc. Soc. exp. Biol. (N.Y.), 111, 544, (1962). Male Sprague-Dawley rats of approximately 200 g body weight, and in group sizes of n=5, were given the substances subcutaneously (0.2 ml/100 g of body weight, dissolved in sesame oil). Controls were given sesame oil alone. 15 minutes later, 0.1 ml of a 0.5% solution of carrageenin was injected into the left hind paw. Prior to this, and at 3 h and 6 h afterwards, the paw volume was measured (ml) and the increase in swelling was ascertained by comparing with the preliminary value. The numbers are mean value and standard deviation (x±s). Statistical significance was assessed using the Dunnett test.

[2] = system: allergic inflammation of the delayed type (oxazolone ear edema); assay: Local antiinflammatory effect in oxazolone ear edema in mice following epicutaneous application; assay type: in vivo, male NMRI mice; settings: for inflammatory edematous swelling, difference between right and left auricle weights (x ± s) / Inhibition in %: 24 h; for inflammatory edematous swelling, difference between right and left auricle weights (x ± s): mice; for Inhibition in %: vs control
From the text: 1. Local antiinflammatory effect in oxazolone ear edema in mice following epicutaneous application.
The method described by Evans, D. P. et al., Br. J. Pharmacol 43, 403 (1971) was used. In mice, 4-ethoxy-methylene-2-phenyl-2-oxazoline (oxazolone) produces an allergic inflammation of the delayed type which can be inhibited by corticosteroids. The experimental animals employed are male NMRI mice of 25 g body weight which are divided into groups of 10 animals each. The animals were sensitized by applying 0.1 ml of a 2% solution of oxazolone in acetone to the shaven skin of the abdomen. On the 9th day following this sensitization, the allergic inflammation was triggered by applying 10 μl of a 2% solution of oxazolone/acetone to the inner side of the right ear auricle (control group). In the treated groups, the abovementioned solution contained the test preparations. 24 hours after applying the solutions, the animals were killed with CO2. A circular sample, measuring 8 mm, was punched out from each of the treated right ear auricle and the untreated left ear auricle. The samples were weighed immediately, with the difference between the right and left auricle weights representing the measure of the degree of inflammation. This inflammatory edematous swelling, in mg, was set to equal 100% in the control group, and the inflammation-inhibiting effect of the preparations is given as the percentage inhibition as compared with the control.

[3] = system: Gluconeogenesis (liver glycogen and glucose); assay: Systemic effect: Gluconeogenesis in rats; assay type: in vivo, Male Sprague-Dawley rats
Protocol: 2b. Testing for systemic effect: Gluconeogenesis in rats
Male Sprague-Dawley rats of approximately 140 g in weight were adrenalectomized. They were given an 0.9% solution of sodium chloride as their drinking water. 48 h later, the animals' feed was removed for 24 h. On the day of the experiment (3 days after adrenalectomy and 1 day of starvation), the experimental preparations were administered s.c. (2 ml/kg in sesame oil, with controls only receiving this vehicle). The animals were decapitated 6 h later, with 1 g of liver being removed in each case. The sample was taken up in 5 ml of 0.6M perchloric acid. Following homogenization and centrifugation, glucose was determined in the supernatant. The precipitate (glycogen) was hydrolyzed enzymically with amyloglucosidase, and glucose was also determined in the resulting hydrolysate (hexokinase test kit, from Boehringer Mannheim).

Structure (SMILES) | effect on paw edema (in words) ([1]; 0.1 mg/kg s.c.) | Increase at 3 h (paw volume) ([1]; 0.1 mg/kg s.c.) [mL] | Increase at 6 h (paw volume) ([1]; 0.1 mg/kg s.c.) [mL] | effect on paw edema (in words) ([1]; 0.3 mg/kg s.c.) | Increase at 3 h (paw volume) ([1]; 0.3 mg/kg s.c.) [mL] | Increase at 6 h (paw volume) ([1]; 0.3 mg/kg s.c.) [mL] | inflammatory edematous swelling, difference between right and left auricle weights (x ± s) ([2]; 0.03 mg/ml epicutaneous) [mg] | Inhibition in % ([2]; 0.03 mg/ml epicutaneous) [%] | inflammatory edematous swelling, difference between right and left auricle weights (x ± s) ([2]; 0.1 mg/ml epicutaneous) [mg] | Inhibition in % ([2]; 0.1 mg/ml epicutaneous) [%] | inflammatory edematous swelling, difference between right and left auricle weights (x ± s) ([2]; 0.3 mg/ml epicutaneous) [mg] | Inhibition in % ([2]; 0.3 mg/ml epicutaneous) [%] | local antiinflammatory effect (in words) ([2]; mouse, in vivo) | advantage (factor) over deoxymethasone regarding gluconeogenic effect ([3]; rat, in vivo) | gluconeogenic effect (in words) ([3]; 0.1 mg/kg, p<0.05, Dunnett's test)
C[C@@H]1C[C@H]2[C@@H]3CCC4=CC(=O)C=C[C@]4(C)[C@@]3(F)[C@@H](O)C[C@]2(C)[C@H]1C(=O)COC(=O)/C=C/c1ccccc1 [Cmpnd. I, Deoxymethasone 21-cinnamic ester] | does not | 0.40 ± 0.06 | 0.39 ± 0.12 | practically without effect | 0.46 ± 0.12 | 0.32 ± 0.05 | 7.7 ± 3.7 | 43 | 3.9 ± 2.9 | 71 | 2.3 ± 1.3 | 83 | strong, local antiinflammatory effect | 3-10 | –
C[C@@H]1C[C@H]2[C@@H]3CCC4=CC(=O)C=C[C@]4(C)[C@@]3(F)[C@@H](O)C[C@]2(C)[C@H]1C(=O)CO [Deoxymethasone, 9α-fluoro-16α-methyl-1(2)-dehydrocorticosterone] | significant effect | 0.28 | 0.23 ± 0.09 | almost completely inhibits the inflammation | 0.17 | 0.03 ± 0.03 | 8.6 ± 3.1 | 36 | 3.9 ± 3.0 | 71 | 2.8 ± 2.3 | 79 | – | – | already exhibits this undesirable effect
